In PubChem BioAssay AID2060512 (Molecular Pharmacology Branch, DTP, NCI, 2025):
pIC50: −log10 of the molar value. Where “and” joins values, the source holds several entries; their conditions need not be identical. Equal values may be shown once.

Tested on: 186277-243-T-J2-PDC complex spheroid viability
Experiment: Anticancer human tumor 186277-243-T-J2-PDC patient-derived colon adenocarcinoma cell line growth inhibition [GQUAD]
Settings: for viability, T/C: stronger effect = lower value
Description: DNA G-quadruplex Stabilizer Agents in Combinations in Complex Spheroids
A high-throughput screen of multi-cell type tumor spheroids was designed to identify active combinations of DNA G-quadruplex stabilizer agents and targeted small molecules. Complex spheroids include a stromal component modeled by human endothelial cells (HUVEC) and fibroblasts modeled by human mesenchymal stem cells (MSCs). The concentration ranges selected for each drug and investigational agent were based upon clinically achievable concentrations if the clinical Cmax of the agent was known.
Compounds. The drugs and investigational agents: pidnarulex (CX-5461; NSC782164), APTO-253 (NSC789042), BRACO-19 (NSC847499), peposertib (NSC802822), ceralasertib (NSC780249), elimusertib (NSC800525), camonsertib (NSC841442), AZD-1390 (NSC803789), olaparib (NSC753686), talazoparib (NSC767125), ART-558 (NSC835418), sotorasib (NSC818433), MRTX-1133 (NSC836407), SN-38 (NSC673596), topotecan (NSC609699), etoposide (NSC141540), doxorubicin (NSC123127), gemcitabine (NSC613327), 5-fluorouracil (NSC19893), paclitaxel (NSC125973), vemurafenib (NSC761431), panobinostat (NSC761190), R-306465 (JNJ-16241199; NSC773264), adavosertib (NSC754352), TP-3654 (NSC805149), carboplatin (NSC241240), KSQ-4279 (NSC840948), and staurosporine (NSC755774) were obtained from the National Cancer Institute (NCI) Developmental Therapeutics Program Chemical Repository (34). The FDA-approved anticancer drug set is available from the NCI Developmental Therapeutics Program. […] The stock solutions were prepared in dimethyl sulfoxide (DMSO, Sigma-Aldrich, St. Louis, MO, cat. D2650) at 800-fold the tested concentration and stored at -70 degrees C prior to their use. All drugs and investigational agents were tested over a range starting from a high concentration at or near the clinical Cmax and decreasing in half-log increments. If the clinical Cmax for an agent had not been determined, the highest concentration tested was 10 microM.
2.3 Cell Culture. All cells were maintained in an incubator at 37 degrees C and 5% CO2 with 95% humidity. The PDC lines were cultured according to standard operating procedures established by the NCI PDMR. All PDCs were thawed and cultured in Matrigel-coated flasks prepared with a working solution of 1X Ham's F-12 nutrient mix, without supplementation (Invitrogen, cat. 11765054), 100 U/mL penicillin-streptomycin (Invitrogen, cat. 15140122), and 2.5% Matrigel (Corning Inc., cat. 354248) for the first three passages. The 857933-349-R-J2-PDC line was cultured in 6C/Colon 1B media, which includes advanced DMEM/F-12 (Thermo Fisher Scientific, cat. 12634028), 10 mM HEPES (Thermo Fisher Scientific, cat. 15630080), 1X GlutaMAX supplement (Thermo Fisher Scientific, cat. 35050061), 0.1 mg/mL primocin (InvivoGen, cat. ant-pm-2), 10% defined fetal bovine serum, heat inactivated (HyClone Laboratories Inc., cat. SH30070.03HI), 50% L-WRN conditioned media (ATCC, cat. CRL-3276), 1.25 mM N-Acetyl-L-cysteine (Sigma-Aldrich, cat. A9165), 10 mM nicotinamide (Sigma-Aldrich, cat. N0636), 1X B-27 supplement (Thermo Fisher Scientific, cat. 17504044), 1X N-2 supplement (Thermo Fisher Scientific, cat. 17502048), 10 microM Y-27632 dihydrochloride (Tocris Bioscience, cat. 1254), and 50 ng/mL human EGF recombinant protein (Thermo Fisher Scientific, cat. PHG0311). The 485176-168-R4-J1-PDC line was cultured in Panc media, which includes all 6C/Colon 1B media components plus 100 ng/mL human FGF-10 (Thermo Fisher Scientific, cat. 100-26), 500 nM SB-431542 (Selleckchem, cat. S1067), and gastrin (Tocris, cat. 3006).
[…]

[1] = curve of first compound, second compound 0.0316 µM
[2] = curve of first compound, second compound 0.1 µM
[3] = curve of first compound, second compound 0.316 µM
[4] = curve of first compound, second compound 1 µM
[5] = curve of first compound, second compound 3.16 µM
[6] = curve of first compound, second compound 10 µM
[7] = second compound 0.0316 µM, first compound 0.0316 µM
[8] = second compound 0.0316 µM, first compound 0.1 µM
[9] = second compound 0.0316 µM, first compound 0.316 µM
[10] = second compound 0.0316 µM, first compound 1 µM
[11] = second compound 0.0316 µM, first compound 3.16 µM
[12] = second compound 0.0316 µM, first compound 10 µM
[13] = second compound 0.1 µM, first compound 0.0316 µM
[14] = second compound 0.1 µM, first compound 0.1 µM
[15] = second compound 0.1 µM, first compound 0.316 µM
[16] = second compound 0.1 µM, first compound 1 µM
[17] = second compound 0.1 µM, first compound 3.16 µM
[18] = second compound 0.1 µM, first compound 10 µM
[19] = second compound 0.316 µM, first compound 0.0316 µM
[20] = second compound 0.316 µM, first compound 0.1 µM
[21] = second compound 0.316 µM, first compound 0.316 µM
[22] = second compound 0.316 µM, first compound 1 µM
[23] = second compound 0.316 µM, first compound 3.16 µM
[24] = second compound 0.316 µM, first compound 10 µM
[25] = second compound 1 µM, first compound 0.0316 µM
[26] = second compound 1 µM, first compound 0.1 µM
[27] = second compound 1 µM, first compound 0.316 µM
[28] = second compound 1 µM, first compound 1 µM
[29] = second compound 1 µM, first compound 3.16 µM
[30] = second compound 1 µM, first compound 10 µM
[31] = second compound 3.16 µM, first compound 0.0316 µM
[32] = second compound 3.16 µM, first compound 0.1 µM
[33] = second compound 3.16 µM, first compound 0.316 µM
[34] = second compound 3.16 µM, first compound 1 µM
[35] = second compound 3.16 µM, first compound 3.16 µM
[36] = second compound 3.16 µM, first compound 10 µM
[37] = second compound 10 µM, first compound 0.0316 µM
[38] = second compound 10 µM, first compound 0.1 µM
[39] = second compound 10 µM, first compound 0.316 µM
[40] = second compound 10 µM, first compound 1 µM
[41] = second compound 10 µM, first compound 3.16 µM
[42] = second compound 10 µM, first compound 10 µM
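Also: spheroids exposed to drugs for 7 days.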
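For viability, T/C in this document: 100% = DMSO vehicle control viability.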

With CC1COCCN1c1cc(-c2ccnn2C)c2ccnc(-c3ccn[nH]3)c2n1 (stereo not given) the viability, T/C (compound 0.0316 µM) was 81.1% and 73.3% and 66.4%, the viability, T/C (compound 0.1 µM) was 12.5% and 11.9% and 12.3% and the viability, T/C (compound 0.316 µM) was 7.41% and 7.05% and 7.85%. For the same compound, the viability, T/C (compound 1 µM) was 5.96% and 5.12% and 5.67%, the viability, T/C (compound 3.16 µM) was 5.8% and 4.75% and 4.94% and the viability, T/C (compound 10 µM) was 7.05% and 4.45% and 5.66%. The pIC50 (curve of compound) was 7.27 and 7.31 and 7.35.

CC1COCCN1c1cc(C2(S(C)(=N)=O)CC2)nc(-c2ccnc3[nH]ccc23)n1 (stereo not given) + CN(C)c1ccc(Nc2c3ccc(NC(=O)CCN4CCCC4)cc3nc3cc(NC(=O)CCN4CCCC4)ccc23)cc1 showed a pIC50 [1] of 6.10, a pIC50 [2] of 6.13 and a pIC50 [3] of 5.87. The pIC50 [4] was 6.01, the pIC50 [5] was 6.01 and the pIC50 [6] was 6.08. It also gave a viability, T/C [7] of 95.5%, a viability, T/C [8] of 100% and a viability, T/C [9] of 117%. It also gave a viability, T/C [10] of 37.2%, a viability, T/C [11] of 8.85% and a viability, T/C [12] of 6.06%. For the same compound, the viability, T/C [13] was 105%, the viability, T/C [14] was 102% and the viability, T/C [15] was 89.4%. It also gave a viability, T/C [16] of 37%, a viability, T/C [17] of 7.6% and a viability, T/C [18] of 5.85%. It also gave a viability, T/C [19] of 85.2%, a viability, T/C [20] of 99.5% and a viability, T/C [21] of 92.7%. The viability, T/C [22] was 65.2%, the viability, T/C [23] was 7.48% and the viability, T/C [24] was 5.05%. It also gave a viability, T/C [25] of 91%, a viability, T/C [26] of 89.8% and a viability, T/C [27] of 96.2%. For the same compound, the viability, T/C [28] was 48.9%, the viability, T/C [29] was 8.32% and the viability, T/C [30] was 5.51%. For the same compound, the viability, T/C [31] was 91%, the viability, T/C [32] was 103% and the viability, T/C [33] was 98.8%. It also gave a viability, T/C [34] of 49.4%, a viability, T/C [35] of 7.66% and a viability, T/C [36] of 5.17%. For the same compound, the viability, T/C [37] was 85.3%, the viability, T/C [38] was 94% and the viability, T/C [39] was 110%. It also gave a viability, T/C [40] of 41.7%, a viability, T/C [41] of 9.87% and a viability, T/C [42] of 5.6%.

With Cn1ncnc1[C@H]1c2n[nH]c(=O)c3cc(F)cc(c23)N[C@@H]1c1ccc(F)cc1 the viability, T/C (compound 0.000999 µM) was 99.3% and 96.1% and 115%, the viability, T/C (compound 0.00316 µM) was 93.5% and 96.6% and 91% and the viability, T/C (compound 0.00999 µM) was 94.1% and 100% and 98.4%. The viability, T/C (compound 0.0316 µM) was 111% and 110% and 97.4%, the viability, T/C (compound 0.0999 µM) was 87.5% and 91.4% and 106% and the viability, T/C (compound 0.316 µM) was 92.4% and 86.5% and 90.8%. The pIC50 (curve of compound) was less than 6.50.

In the case of CC[C@@]1(O)C(=O)OCc2c1cc1n(c2=O)Cc2cc3c(CN(C)C)c(O)ccc3nc2-1, the viability, T/C (compound 0.000999 µM) was 105% and 97.5% and 100%, the viability, T/C (compound 0.00316 µM) was 97.5% and 99.2% and 96.2% and the viability, T/C (compound 0.00999 µM) was 97.4% and 111% and 103%. For the same compound, the viability, T/C (compound 0.0316 µM) was 87.6% and 77.7% and 96.6%, the viability, T/C (compound 0.0999 µM) was 72.4% and 55.3% and 59.9% and the viability, T/C (compound 0.316 µM) was 50.6% and 42.9% and 46.2%. The pIC50 (curve of compound) was < 6.50 and 6.98 and 6.64.

CC1COCCN1c1cc(-c2ccnn2C)c2ccnc(-c3ccn[nH]3)c2n1 (stereo not given) + Cc1[nH]c2ccc(F)cc2c1-c1nc2c3cccnc3c3ncccc3c2[nH]1 was tested, and the pIC50 [1] was 7.30, the pIC50 [2] was 7.31 and the pIC50 [3] was 7.30. It also gave a pIC50 [4] greater than 7.50, a pIC50 [5] of 7.39 and a pIC50 [6] of 7.47. For the same compound, the viability, T/C [7] was 74.1%, the viability, T/C [8] was 15% and the viability, T/C [9] was 7.54%. It also gave a viability, T/C [10] of 5%, a viability, T/C [11] of 5.42% and a viability, T/C [12] of 5.79%. It also gave a viability, T/C [13] of 70.8%, a viability, T/C [14] of 15% and a viability, T/C [15] of 8.57%. For the same compound, the viability, T/C [16] was 5.57%, the viability, T/C [17] was 6.67% and the viability, T/C [18] was 6.18%. The viability, T/C [19] was 72.2%, the viability, T/C [20] was 17.8% and the viability, T/C [21] was 7.48%. The viability, T/C [22] was 5.56%, the viability, T/C [23] was 6.42% and the viability, T/C [24] was 6.89%. The viability, T/C [25] was 49%, the viability, T/C [26] was 13.3% and the viability, T/C [27] was 6.83%. It also gave a viability, T/C [28] of 5.52%, a viability, T/C [29] of 7.58% and a viability, T/C [30] of 7.98%. It also gave a viability, T/C [31] of 59.7%, a viability, T/C [32] of 13.9% and a viability, T/C [33] of 7.5%. For the same compound, the viability, T/C [34] was 6.04%, the viability, T/C [35] was 7.48% and the viability, T/C [36] was 7.66%. It also gave a viability, T/C [37] of 52.1%, a viability, T/C [38] of 11.5% and a viability, T/C [39] of 8.02%. For the same compound, the viability, T/C [40] was 5.7%, the viability, T/C [41] was 5.81% and the viability, T/C [42] was 6.85%.
